The nature of data set [1]: in vitro. Format: in vitro ADME. Particulars: human; for fraction unbound at 4 h, 5 µM: plasma. How it is done: (§1) The objective of this study was to evaluate protein binding test compounds in human and mice plasma. This was accomplished by spiking the test compounds at a concentration of 5 µM into human and mice plasma and dialyzing against buffer until equilibrium is achieved (4 hours). Analyte area ratios of the test compounds in plasma and buffer were determined to calculate unbound and bound percentages of compound to the plasma proteins.
(§2) Compound concentration : 5 µM
(§3) Rapid equilibrium dialysis was performed with a rapid equilibrium dialysis (RED) device containing dialysis membrane with a molecular weight cut-off of 8,000 Daltons. Each dialysis insert contains two chambers. The red chamber is for plasma while the white chamber is for buffer.
(§4) After sealing the RED device with an adhesive film, dialysis was performed in incubator at 37 °C with shaking at 100 RPM for 4 hours.
(§5) Two aliquots were frozen immediately (0 minute sample). The other two aliquots were incubated at 37 °C for 4 hours along with the RED device.
(§6) Following dialysis, an aliquot of 50 µL was removed from each well (both plasma and buffer side) and diluted with equal volume of opposite matrix (dialyzed with the other matrix) to nullify the matrix effect. Similarly, 50 µL of buffer was added to recovery and stability samples. An aliquot of 100 µL was submitted for LC-MS/MS analysis.
(§7) The peak area ratios (analyte versus internal standard) obtained was used to determine the fraction of compound bound to plasma proteins. The following equation was used to determine the extent of plasma protein binding:
(§8) Percent free drug = 100 x (peak area ratio in dialysate buffer)
(§9) Percent bound drug = 100 - % free drug
(§10) Recovery (%): 100 x (response plasma + response buffer) after dialysis / (response plasma) incubated at 37 °C in tubes along with RED device.
(§11) Stability (%):100 x (response plasma) incubated at 37 °C in tubes along with RED device / (response plasma) samples frozen at 0 min

The nature of data set [2]: in vitro. Format: in vitro ADME, mice. The settings on record: mouse; for fraction unbound at 4 h, 5 µM: plasma. How it is done: as §1, §2, §3, §4, §5, §6, §7, §8, §9, §10, §11
Another data set deals with T1, PAR2 (Mus musculus, UniProt P55086).
T1 construct: from tissue; host or cells: living C57BL6 mice (hind paw / nociceptors)
T1 sequence (P55086 26-399): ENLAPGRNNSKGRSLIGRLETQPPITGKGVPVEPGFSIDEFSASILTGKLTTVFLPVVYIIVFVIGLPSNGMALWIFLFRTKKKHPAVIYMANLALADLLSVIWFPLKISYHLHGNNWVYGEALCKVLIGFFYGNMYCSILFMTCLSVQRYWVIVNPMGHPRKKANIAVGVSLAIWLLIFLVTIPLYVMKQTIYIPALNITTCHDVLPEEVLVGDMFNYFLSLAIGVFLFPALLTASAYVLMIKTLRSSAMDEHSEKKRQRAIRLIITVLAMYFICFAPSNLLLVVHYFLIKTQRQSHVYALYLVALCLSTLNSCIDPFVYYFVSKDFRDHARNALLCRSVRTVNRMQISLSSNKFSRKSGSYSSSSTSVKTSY
Put plainly: Local intraplantar coinjection of C781 with PAR2 agonist 2AT: von Frey, Mouse Grimace Scale, hyperalgesic priming (PGE2). Type of data set: in vivo, C57BL6 mice. The settings on record: 2AT 20.9 ng intraplantar. How it is done:
Experimenters were blinded to treatment groups in all experiments. Animals were habituated to suspended acrylic chambers with each individual chamber measuring 11.4 × 7.6 × 7.6 cm and a wire mesh bottom (1 cm^2). Mechanical hypersensitivity was assessed using the manual von Frey hair test after spontaneous pain assessment using the Mouse Grimace Scale (MGS). This was done to assure that grimacing responses were not a result of mechanical stimulation.
MGS were determined using the MGS test as described by Langford and colleagues.[37] After habituation, the experimenter observed the mice and assigned intensity ratings (0 = not present, 1 = moderately present, 2 = severe) to the facial action units relative to baseline. The 5 action units identified are 1) orbital tightening, 2) nose bulge, 3) cheek bulge, 4) ear position, and 5) whisker change. The scores for all 5 action units are averaged to obtain the MGS score for each time point.
Hind paw withdrawal thresholds were calculated via the Dixon up-down method after applying calibrated von Frey filaments from Stoelting, Co. (cat# 58011) to the volar surface of the left hind paw.[12] […] The maximum filament weight used was 2 g.
Hyperalgesic priming was determined after allowing animals to return to baseline levels and injecting the previously injected paw with 100 ng of PGE2 (Cayman Chemical, Ann Arbor, MI). […]

As to `CC(=O)CC(c1ccccc1)c1c(O)c2ccccc2oc1=O` (stereo not drawn) [Warfarin], the recovery at 4 h, 5 µM worked out at 97% in “in vitro [1]” (pH 7.4) and 94% in “in vitro [2]” (pH 7.4). For the same compound, the fraction unbound at 4 h, 5 µM is 0.011 in “in vitro [1]” (pH 7.4, % Bound Mean ± SD); 0.012 in “in vitro [1]” (pH 7.4, % Bound R1); 0.01 in the data set “in vitro [1]” (pH 7.4, % Bound R2); 0.011 in “in vitro [1]” (pH 7.4, % Bound R3); 0.061 in “in vitro [2]” (pH 7.4, % Bound Mean ± SD); 0.058 in “in vitro [2]” (pH 7.4, % Bound R1). Moreover, the unbound share (fraction unbound) at 4 h, 5 µM in “in vitro [2]” (pH 7.4, % Bound R2) was 0.057; in the data set “in vitro [2]” (pH 7.4, % Bound R3) it was 0.07.

As to “2-aminothiazo-4-yl-LIGRL-NH2 [Compound 2AT]”, at PAR2, the “Nociceptive behaviors evoked by agonist (mechanical hypersensitivity, facial grimacing)” value was “caused both mechanical hypersensitivity and facial grimacing”. Besides, the “Hyperalgesic priming by agonist (response to PGE2)” value at PAR2 (then PGE2 100 ng intraplantar) was “primed and exhibited mechanical allodynia and facial grimacing in response to PGE2”.

The values are drawn from article PMC10079573 (The journal of pain, 2022).
